According to patent publication US10428030B2, “Heterocycle derivatives and their use for the treatment of CNS disorders” (Trillium Therapeutics Inc., priority 2015, dated 2019):

What was measured:
Rotorod (ip), mouse = conditions: in vivo, mice
hippocampal kindled rat = assay: Hippocampal kindled rat model (focal seizures); assay type: in vivo; conditions: <300 mg/kg i.p., vs vehicle controls
Description: Hippocampal Kindled Rat Test is designed to quantify the anticonvulsant effects of a test compound in the kindled rat model. Rats treated by i.p. injection.
The Kindled Rat is a model of temporal lobe epilepsy, which is the most common and drug-resistant type of adult focal epilepsy (Morimoto et al., 2004). […] This acquired hyper-responsiveness is called kindling and results not only in increased seizure responses but also in an elongation of the after-discharge duration seen on an EEC recording. Electrodes are implanted into the hippocampus of anesthetized rats, which are then allowed to recover for one week. […] At each time point, the behavioral seizure score (BSS) and after-discharge duration (ADD) is recorded. The BSS's are scored according to the following criteria (Racine, Electroencephalogr Clin Neurophysiol 1972, 32:281-94): Stage 1—mouth and facial clonus; Stage 2—stage 1 plus head nodding; Stage 3—stage 2 plus forelimb clonus; Stage 4—stage 3 plus rearing; and Stage 5—stage 4 plus repeated rearing and falling.
The afterdischarge threshold (ADT) can also be measured in the kindled rat. […] The individual rat ADT is then determined at varying times (i.e., 0.25, 1, 2, and 4 hr) after drug administration.

male CF-1 mouse = assay: Mouse formalin test (pain); assay type: in vivo; conditions: 41 mg/kg i.p.; most pronounced in second (late) phase
Description: The formalin test is performed according to the method of Tjolsen et al. Pain, 1992. 51(1). An injection of 0.5% formalin (Sigma) is made into the planter region of the right hind paw of an adult (26-30 g) male CF-1 mouse. Sub-dermal formalin injection elicits a distinct behavioral profile characterized by the mouse licking the affected paw. The behavior is characteristically biphasic in nature. For example, immediately following the injection the mouse licks the paw intensely for approximately 10 min. This is referred to as phase 1 (or, the acute phase) and is followed by a brief latent period (<5 minutes) where there is little behavioral activity. A more prolonged period of about 20-30 min of activity then ensues, which constitutes phase 2 (or, the inflammatory phase). […] The cumulative length of licking for each 2-min time period is measured. […] The area under the curve (AUG) is calculated for both the acute and inflammatory phases of the licking response for individual animals in both the test and control groups. The percent of control AUG for drug-treated animal groups is determined using the Graph-Pad Prism Version 3.03. The total AUG for each phase of the test group is also calculated and converted to percentage of total AUG of control for each phase. The average and S.E.M. for both the drug treated and control percentages are calculated and tested for significant difference.

mice = assay: Intravenous Metrazol Seizure Threshold Test (i.v. MET); assay type: in vivo; conditions: mouse, ip, i.v. Metrazol infusion (FIG. 1)
Description: The iv-Met test provides a measure of a test substance's ability to raise or lower seizure threshold. Two doses of the test compound are usually employed in this test, the MES ED50 and the TD50 determined following ip quantification testing in mice. Randomly selected mice are injected intraperitoneally 2 minutes apart with either the vehicle or the two test drug doses, maintaining the same order of dosing until 30 mice have been injected. At the previously determined TPE, 0.5% heparinized Metrazol solution is infused at a constant rate of 0.34 ml/min into a lateral tail vein of an unrestrained mouse. Infusion is by means of a Sage syringe pump (model 341 A) and a 10 ml B-D plastic syringe connected to a length of No 20 P.E. tubing. A 27 gauge stainless steel needle with the hub removed is connected to the tubing and inserted into a vein, bevel side up and secured to the tail by a narrow piece of adhesive tape. For the placement of the needle, the mouse is restrained in a cone shaped device with only the tail exposed. The rate selector is set on 4, and the switch is set at ml/min. […] The time in seconds from the start of the infusion to the appearance of the “first twitch” and the onset of sustained clonus is recorded. […]
The mean and standard error for each of the 3 groups and the significance of the difference between the test groups and the control are calculated.

- ED50 at 0.5 hours (Rotorod (ip), mouse): > 500 mg/kg
Structure (SMILES): O=C1COc2cc(OCc3ccc(OC(F)F)cc3)ccc2N1 [Compound I(B)]
- suppression of fully kindled (stage 5) seizures (hippocampal kindled rat): dose related suppression of fully kindled (stage 5) seizures
- number of paw licks (male CF-1 mouse): significant decrease in the number of paw licks
- effect on seizure threshold (mice): dose-dependently increased the seizure threshold
